Data from ChEMBL document CHEMBL1201862, “PubChem BioAssay data set” (2004).
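A five-concentration, 48-hour dose response in 96-well plates underlies each endpoint, interpolated linearly between surrounding concentrations. The concentration for 50% growth inhibition is given as GI50.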 Active and inactive are the calls of the source. Rule as the data show it: active = GI50 up to about 1.1 µM and inactive = higher.

Columns and labels:
Assay in all cases: NCI-60 cell line screen, 48 h
HL-60 = test system: HL-60
HCC 2998 = test system: HCC 2998
SK-MEL-5 = test system: SK-MEL-5
IGROV-1 = test system: IGROV-1
M14 = test system: M14
ACHN = test system: ACHN
OVCAR-4 = test system: OVCAR-4
Malme-3M = test system: Malme-3M
UO-31 = test system: UO-31
HT-29 = test system: HT-29
RPMI-8226 = test system: RPMI-8226
TK-10 = test system: TK-10
KM12 = test system: KM12
OVCAR-3 = test system: OVCAR-3
UACC-257 = test system: UACC-257
HOP-92 = test system: HOP-92

Measured: GI50

COC(=O)C1C(=O)NC2(C)CC1c1ccccc1O2 (stereo not drawn)
inactive: HL-60 > 100 µM | HCC 2998 > 100 µM | SK-MEL-5 > 100 µM | IGROV-1 > 100 µM | M14 > 10 µM | ACHN > 100 µM | OVCAR-4 > 100 µM | Malme-3M > 100 µM | UO-31 > 100 µM | HT-29 > 100 µM | RPMI-8226 > 100 µM | TK-10 > 100 µM | KM12 > 100 µM | OVCAR-3 > 10 µM | UACC-257 > 100 µM | HOP-92 > 100 µM

O=C(CC1(O)C(=O)Nc2c(Cl)cc(Cl)cc21)c1ccc(Br)cc1 (stereo not drawn)
inactive: HL-60 4.3 µM | HCC 2998 39.5 µM | SK-MEL-5 16.9 µM | IGROV-1 18.2 µM | M14 17.6 µM | ACHN 15.3 µM | OVCAR-4 12.4 µM | Malme-3M > 41.3 µM | UO-31 12.9 µM | HT-29 37.7 µM | RPMI-8226 13 µM | TK-10 17.6 µM | KM12 15.2 µM | OVCAR-3 14.1 µM | UACC-257 29.4 µM | HOP-92 15.7 µM

CC1CC2(CCC1OCc1ccccc1)OCCO2 (stereo not drawn)
inactive: HL-60 > 100 µM | HCC 2998 > 100 µM | SK-MEL-5 > 100 µM | IGROV-1 > 100 µM | M14 > 100 µM | OVCAR-4 > 100 µM | Malme-3M > 100 µM | UO-31 > 100 µM | HT-29 > 100 µM | RPMI-8226 > 100 µM | TK-10 > 100 µM | KM12 > 100 µM | OVCAR-3 > 100 µM | UACC-257 > 100 µM | HOP-92 > 100 µM

COc1cc2c(cc1OC)C(C(CO)CO)N(CC(O)CCl)CC2 (stereo not drawn)
inactive: HL-60 > 100 µM | HCC 2998 > 100 µM | SK-MEL-5 > 100 µM | IGROV-1 > 100 µM | M14 > 100 µM | ACHN > 100 µM | OVCAR-4 > 100 µM | Malme-3M > 100 µM | UO-31 86.5 µM | HT-29 > 100 µM | RPMI-8226 > 100 µM | TK-10 > 100 µM | KM12 > 100 µM | OVCAR-3 > 100 µM | UACC-257 > 100 µM | HOP-92 > 100 µM

CC(=O)CC(=O)OC1CC(C)CCC1C(C)C (stereo not drawn)
inactive: HL-60 18.8 µM | HCC 2998 41.4 µM | SK-MEL-5 42.2 µM | IGROV-1 76.6 µM | M14 > 100 µM | ACHN > 100 µM | OVCAR-4 54.5 µM | Malme-3M 40.7 µM | UO-31 > 100 µM | HT-29 30 µM | RPMI-8226 15 µM | TK-10 > 100 µM | KM12 37.8 µM | OVCAR-3 26 µM | UACC-257 77.4 µM | HOP-92 35 µM

N#C/C(=C1\N=NC(N)=C(c2ccc(Cl)cc2)C1=O)c1ccc(Cl)cc1
inactive: HL-60 > 100 µM | HCC 2998 > 100 µM | IGROV-1 > 100 µM | M14 > 100 µM | ACHN > 100 µM | OVCAR-4 > 100 µM | Malme-3M > 100 µM | UO-31 > 100 µM | HT-29 > 100 µM | RPMI-8226 > 100 µM | TK-10 > 100 µM | KM12 > 100 µM | OVCAR-3 > 100 µM | UACC-257 > 100 µM | HOP-92 > 100 µM

COc1ccc2c(c1)CCC1C3(CCCC21C)OCCO3 (stereo not drawn)
inactive: HL-60 15.9 µM | HCC 2998 22.8 µM | SK-MEL-5 15.6 µM | IGROV-1 28.8 µM | M14 18.8 µM | ACHN 23.3 µM | OVCAR-4 29.4 µM | Malme-3M 27.9 µM | UO-31 16.9 µM | HT-29 17.5 µM | RPMI-8226 18.8 µM | TK-10 36.8 µM | KM12 20.3 µM | OVCAR-3 16.1 µM | UACC-257 20.8 µM | HOP-92 15.1 µM

COc1ccc(CN2C(=O)[C@@H]3Cc4c(OC)c(C)c(OC)c(OC)c4[C@H](/C2=C\c2cc(OC)c(OC)c(C)c2OC)N3C(=O)OC(C)C)cc1
inactive: HL-60 5.53 µM | HCC 2998 22.4 µM | SK-MEL-5 29.4 µM | IGROV-1 > 100 µM | M14 28.4 µM | ACHN > 100 µM | OVCAR-4 50.7 µM | Malme-3M 41.2 µM | UO-31 36.5 µM | HT-29 92.5 µM | RPMI-8226 8.34 µM | TK-10 78 µM | KM12 > 100 µM | OVCAR-3 99.1 µM | UACC-257 8.28 µM | HOP-92 8.04 µM

CCOC(=O)C1=C(C)CC2C(=O)OC(=O)C2C1(C)C (stereo not drawn)
inactive: HL-60 > 100 µM | HCC 2998 > 100 µM | SK-MEL-5 > 100 µM | IGROV-1 > 100 µM | M14 > 100 µM | ACHN > 100 µM | Malme-3M > 100 µM | UO-31 > 100 µM | HT-29 > 100 µM | RPMI-8226 > 100 µM | TK-10 > 100 µM | KM12 > 100 µM | OVCAR-3 > 100 µM | UACC-257 > 100 µM | HOP-92 > 100 µM

Cc1cccc2[s+]snc12
inactive: HL-60 18 µM | HCC 2998 > 100 µM | SK-MEL-5 > 100 µM | IGROV-1 > 100 µM | M14 > 68.5 µM | ACHN 63.5 µM | OVCAR-4 > 100 µM | Malme-3M 30.5 µM | UO-31 > 100 µM | HT-29 > 100 µM | RPMI-8226 > 42.4 µM | TK-10 > 100 µM | KM12 > 100 µM | OVCAR-3 30.1 µM | UACC-257 > 76.9 µM | HOP-92 23.1 µM

CSc1nc(Cl)c(Br)c(Sc2nc(N)nc3nc[nH]c23)n1
inactive: HL-60 3.63 µM | HCC 2998 3.79 µM | SK-MEL-5 12.5 µM | IGROV-1 13.5 µM | M14 4.56 µM | ACHN 15.3 µM | OVCAR-4 11 µM | Malme-3M 13.4 µM | UO-31 5.01 µM | HT-29 9.86 µM | RPMI-8226 2.25 µM | TK-10 6.79 µM | KM12 5.18 µM | OVCAR-3 15.2 µM | UACC-257 13.9 µM | HOP-92 7.28 µM

CCOC(=O)N1CCN(P(=O)(Nc2ccc3[nH]c(NC(=O)OC)nc3c2)Oc2ccccc2)CC1 (stereo not drawn)
inactive: HL-60 > 100 µM | HCC 2998 > 100 µM | IGROV-1 > 100 µM | M14 > 100 µM | ACHN > 100 µM | OVCAR-4 > 100 µM | Malme-3M 31.6 µM | UO-31 > 100 µM | HT-29 > 100 µM | RPMI-8226 81.8 µM | TK-10 > 100 µM | KM12 > 100 µM | OVCAR-3 50.7 µM | UACC-257 > 100 µM | HOP-92 > 100 µM
